Assay results published in patent US20240325572A1, “N-HETEROCYCLYL SUBSTITUTED 2-CYANO-3-(NAPHTHALEN-2-YL)ACRYLAMIDE DERIVATIVES AS FLUOROPHORS FOR DETECTION OF AMYLOID AND AMYLOID-LIKE PROTEINS FOR DIAGNOSIS OF NEURODEGENERATIVE DISORDERS” (Amydis, Inc., priority 2021, published 2024).
One block for each compound: values may come before it.

Target: T1, aggregated amyloid beta (Aβ1-42) (Homo sapiens, UniProt P05067)
T1 construct: Aβ1-42 peptide was aggregated in vitro using the following procedure
Assay: In vitro binding studies of compounds with amyloid beta: fluorescent emission spectra with and without aggregated Aβ
Conditions: fold increase at maximum emission (compound+Aβ/compound), 4 μM compound, 5 μM aggregated Aβ in 1×PBS; for Fold Increase @ 450 nm: excitation 450 nm; for Fold Increase @ 488 nm: excitation 488 nm
Experimental: The fluorescent properties and emission spectra of compounds described herein with aggregated amyloid beta (Aβ1-42) were characterized as described below.
Emission spectra for compounds described herein were collected after incubation of the compounds with and without aggregated Aβ at specific excitation wavelengths (450 nm and 488 nm) employed in standard ocular imaging equipment.
Aβ1-42 peptide was aggregated in vitro using the following procedure. Aβ42 (HFIP) was removed from the freezer and allowed to warm to room temperature, then 1 mg of Aβ42 was dissolved in 215 μL of ddH2O for about 10-20 mins at room temperature. To the resulting solution, 2 mL of ddH2O was added to provide a 100 μM stock solution. A 100 μL aliquot was sampled and frozen (non-aggregated sample). The tubes were placed in a thermoshaker at 350 rpm for 3 days. Care was taken to avoid generating bubbles. Aβ aggregation was confirmed by measuring binding to Thioflavin T (ThT). Aggregated Aβ1-42 peptide was then portioned into 150 μL aliquots and stored at −80° C.
The fluorescent emission spectra were measured as follows to determine binding of Aβ to test compounds described herein. The Shimadzu fluorimeter was turned on and allowed to warm up for ˜60 minutes. The test compounds were then removed from the −20° C. freezer and were allowed to warm to room temperature. The 100 μM aggregated Aβ solution was then removed from the −80° C. freezer and also allowed to warm to room temperature. 250 μM solutions of each test compound in DMSO were then prepared. These were then used to prepare 4 μM solutions of each test compound, with and without 5 μM aggregated Aβ in 1×PBS, in triplicates. Using a cuvette, the fluorescent emission spectra were measured for each test compound+Aβ solution, employing a DMSO/PBS solution as a blank. Each sample was tested at an excitation of 450 nm and 488 nm. Fluorescent emission spectra were then collected for each 4 μM test compound solution alone. The resulting data were used to plot intensity vs. wavelength for each emission scan.

T1 sequence (P05067 672-713 limits assumed): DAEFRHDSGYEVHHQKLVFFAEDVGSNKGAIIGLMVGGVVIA

SMILES: N#C/C(=C\c1ccc2ccccc2c1N1CCCCC1)C(=O)NCC(O)CO (centres unmarked) [Compound 6, (E)-2-cyano-N-(2,3-dihydroxypropyl)-3-(1-(piperidin-1-yl)naphthalen-2-yl)acrylamide]
Fold Increase @ 450 nm: 7.12
Fold Increase @ 488 nm: 17.18

SMILES: N#C/C(=C\c1ccc2ccccc2c1N1CCC1)C(=O)NCC(O)CO (centres unmarked) [Compound 7, (E)-3-(1-(azetidin-1-yl)naphthalen-2-yl)-2-cyano-N-(2,3-dihydroxypropyl)acrylamide]
Fold Increase @ 450 nm: 4.31
Fold Increase @ 488 nm: 2.84

SMILES: N#C/C(=C\c1ccc2cc(N3CCCCC3)ccc2c1)C(=O)CC[C@H](O)CO [Compound 8, (S,E)-6,7-dihydroxy-3-oxo-2-((6-(piperidin-1-yl)naphthalen-2-yl)methylene)heptanenitrile]
Fold Increase @ 450 nm: 9.48
Fold Increase @ 488 nm: 19.60

SMILES: N#C/C(=C\c1ccc2cc(N3CCCCC3)ccc2c1)C(=O)CCCOCCOCCO [Compound 9, (E)-6-(2-(2-hydroxyethoxy)ethoxy)-3-oxo-2-((6-(piperidin-1-yl)naphthalen-2-yl)methylene)hexanenitrile]
Fold Increase @ 450 nm: 10.16
Fold Increase @ 488 nm: 9.11

Continued, values first:

Fold Increase @ 450 nm: 15.28
Fold Increase @ 488 nm: 18.53
SMILES: N#C/C(=C\c1ccc2cc(N3CCCCC3)ccc2c1)C(=O)NCC(O)CO (centres unmarked) [Compound 4, (E)-2-cyano-N-(2,3-dihydroxypropyl)-3-(6-(piperidin-1-yl)naphthalen-2-yl)acrylamide, reference compound]

Fold Increase @ 450 nm: 18.18
Fold Increase @ 488 nm: 22.81
SMILES: N#C/C(=C\c1ccc2cc(N3CCCC3)ccc2c1)C(=O)NCC(O)CO (centres unmarked) [Compound 5, (E)-2-cyano-N-(2,3-dihydroxypropyl)-3-(6-(pyrrolidin-1-yl)naphthalen-2-yl)acrylamide]

Fold Increase @ 450 nm: 21.98
Fold Increase @ 488 nm: 19.13
SMILES: N#C/C(=C\c1ccc2cc(N3CCC3)ccc2c1)C(=O)NCC(O)CO (centres unmarked) [Compound 10, (E)-3-(6-(azetidin-1-yl)naphthalen-2-yl)-2-cyano-N-(2,3-dihydroxypropyl)acrylamide]
